Measurements as given in article PMC5218480 (PLoS ONE, 2017).

System: MV-4-11 cells
Test: Gene expression microarray analysis (Affymetrix PrimeView) and GSEA
Assay type: cell-based, human
Parameters: RFU PODN (11730768_x_at) / Fold change /veh PODN (11730768_x_at) / RFU LINC00158 (11744669_a_at) / Fold change /veh LINC00158 (11744669_a_at) / RFU DUSP10 (11751237_a_at) / Fold change /veh DUSP10 (11751237_a_at) / RFU ID3 (11757404_x_at) / Fold change /veh ID3 (11757404_x_at) / RFU PLEKHG5 (11737974_s_at) / Fold change /veh PLEKHG5 (11737974_s_at) / RFU LRRC4B (11730491_at) / Fold change /veh LRRC4B (11730491_at) / RFU GIMAP4 (11747438_a_at) / Fold change /veh GIMAP4 (11747438_a_at) / RFU KRT8 (11758183_x_at) / Fold change /veh KRT8 (11758183_x_at) / RFU CNN1 (11734310_a_at) / Fold change /veh CNN1 (11734310_a_at) / RFU VPS37D (11726825_at) / Fold change /veh VPS37D (11726825_at) / RFU C10orf10 (11716522_x_at) / Fold change /veh C10orf10 (11716522_x_at) / RFU KIR2DL2 /// KIR2DL4 /// KIR2DL5A /// KIR2DL5B /// KIR2DS1 /// KIR2DS2 /// KIR2DS3 /// KIR2DS4 /// KIR3DL3 /// KIR3DL3 /// KIR3DS1 (11738374_at) / Fold change /veh KIR2DL2 /// KIR2DL4 /// KIR2DL5A /// KIR2DL5B /// KIR2DS1 /// KIR2DS2 /// KIR2DS3 /// KIR2DS4 /// KIR3DL3 /// KIR3DL3 /// KIR3DS1 (11738374_at) / RFU C1QL1 (11718748_at) / Fold change /veh C1QL1 (11718748_at) / RFU TMPRSS4 (11747572_a_at) / Fold change /veh TMPRSS4 (11747572_a_at) / RFU HAMP (11756126_x_at) / Fold change /veh HAMP (11756126_x_at) / RFU RNFT2 (11725882_a_at) / Fold change /veh RNFT2 (11725882_a_at) / RFU NR4A2 (11747474_a_at) / Fold change /veh NR4A2 (11747474_a_at) / RFU ABCC12 (11746883_a_at) / Fold change /veh ABCC12 (11746883_a_at) / RFU TMEM136 (11760407_x_at) / Fold change /veh TMEM136 (11760407_x_at) / RFU CLDN22 /// WWC2 (11732394_at) / Fold change /veh CLDN22 /// WWC2 (11732394_at) / RFU HLA-DPB1 (11760878_x_at) / Fold change /veh HLA-DPB1 (11760878_x_at) / RFU SPINT1 (11716480_a_at) / Fold change /veh SPINT1 (11716480_a_at) / RFU GAP43 (11754022_s_at) / Fold change /veh GAP43 (11754022_s_at) / RFU A4GNT (11735810_at) / Fold change /veh A4GNT (11735810_at) / RFU PRB3 (11715151_x_at) / Fold change /veh PRB3 (11715151_x_at) / RFU TUBB4B (11761932_at) / Fold change /veh TUBB4B (11761932_at) / RFU CAPN14 (11732068_a_at) / Fold change /veh CAPN14 (11732068_a_at) / RFU TMCC2 (11721928_a_at) / Fold change /veh TMCC2 (11721928_a_at) / RFU IRGQ (11745062_a_at) / Fold change /veh IRGQ (11745062_a_at) / RFU FAM174B (11720279_a_at) / Fold change /veh FAM174B (11720279_a_at) / RFU TMPRSS4 (11748680_a_at) / Fold change /veh TMPRSS4 (11748680_a_at) / RFU FAM212B (11763350_a_at) / Fold change /veh FAM212B (11763350_a_at) / RFU PLEKHG5 (11743358_a_at) / Fold change /veh PLEKHG5 (11743358_a_at) / RFU ZSCAN30 (11745921_a_at) / Fold change /veh ZSCAN30 (11745921_a_at) / RFU CMKLR1 (11741424_a_at) / Fold change /veh CMKLR1 (11741424_a_at) / RFU LOC101060620 /// MAPK8IP1 (11723275_at) / Fold change /veh LOC101060620 /// MAPK8IP1 (11723275_at) / RFU SPTSSB (11747773_x_at) / Fold change /veh SPTSSB (11747773_x_at) / RFU PRSS12 (11739890_at) / Fold change /veh PRSS12 (11739890_at) / RFU BIN1 (11741810_x_at) / Fold change /veh BIN1 (11741810_x_at) / RFU WNT11 (11732464_a_at) / Fold change /veh WNT11 (11732464_a_at) / RFU C10orf10 (11716521_a_at) / Fold change /veh C10orf10 (11716521_a_at) / RFU C5orf56 (11738089_at) / Fold change /veh C5orf56 (11738089_at) / RFU CYB561 (11721691_x_at) / Fold change /veh CYB561 (11721691_x_at) / RFU ANKRD19P (11752326_a_at) / Fold change /veh ANKRD19P (11752326_a_at) / RFU OR2T12 /// OR2T33 /// OR2T8 (11738714_s_at) / Fold change /veh OR2T12 /// OR2T33 /// OR2T8 (11738714_s_at) / RFU VCAN (11748164_a_at) / Fold change /veh VCAN (11748164_a_at) / RFU JSRP1 (11732532_at) / Fold change /veh JSRP1 (11732532_at) / RFU KRTAP10-11 (11738290_x_at) / Fold change /veh KRTAP10-11 (11738290_x_at) / RFU MYO3A (11730013_a_at) / Fold change /veh MYO3A (11730013_a_at) / RFU EBF3 (11725865_a_at) / Fold change /veh EBF3 (11725865_a_at) / RFU CAMK2N1 (11719241_x_at) / Fold change /veh CAMK2N1 (11719241_x_at) / RFU C5orf56 (11738088_a_at) / Fold change /veh C5orf56 (11738088_a_at) / RFU OLFML3 (11715873_a_at) / Fold change /veh OLFML3 (11715873_a_at) / RFU LOC100653217 /// NTM (11731650_a_at) / Fold change /veh LOC100653217 /// NTM (11731650_a_at) / RFU MAPK11 (11762145_a_at) / Fold change /veh MAPK11 (11762145_a_at) / RFU FIZ1 (11724087_x_at) / Fold change /veh FIZ1 (11724087_x_at) / RFU OASL (11726364_x_at) / Fold change /veh OASL (11726364_x_at) / RFU SOX15 (11748057_x_at) / Fold change /veh SOX15 (11748057_x_at) / RFU CD79A (11719716_a_at) / Fold change /veh CD79A (11719716_a_at) / RFU HIST1H1D (11736915_at) / Fold change /veh HIST1H1D (11736915_at) / RFU CASKIN2 (11723855_a_at) / Fold change /veh CASKIN2 (11723855_a_at) / RFU LOC730098 (11760151_x_at) / Fold change /veh LOC730098 (11760151_x_at) / RFU OR4N2 (11742367_at) / Fold change /veh OR4N2 (11742367_at) / RFU PRRT2 (11749266_a_at) / Fold change /veh PRRT2 (11749266_a_at) / RFU SNX32 (11753110_a_at) / Fold change /veh SNX32 (11753110_a_at) / RFU CDHR5 (11726645_a_at) / Fold change /veh CDHR5 (11726645_a_at) / RFU RCAN1 (11760418_a_at) / Fold change /veh RCAN1 (11760418_a_at) / RFU FAM167A (11723789_a_at) / Fold change /veh FAM167A (11723789_a_at) / RFU FAM26E (11764081_at) / Fold change /veh FAM26E (11764081_at) / RFU ISYNA1 (11749810_s_at) / Fold change /veh ISYNA1 (11749810_s_at) / RFU ACY1 (11761880_at) / Fold change /veh ACY1 (11761880_at) / RFU 11764098_at / Fold change /veh 11764098_at / RFU SAMD14 (11745864_x_at) / Fold change /veh SAMD14 (11745864_x_at) / RFU NPB (11741838_a_at) / Fold change /veh NPB (11741838_a_at) / RFU TMPRSS6 (11731388_a_at) / Fold change /veh TMPRSS6 (11731388_a_at) / RFU KRTAP10-2 (11738614_at) / Fold change /veh KRTAP10-2 (11738614_at) / RFU ARHGAP8 /// PRR5-ARHGAP8 (11727945_x_at) / Fold change /veh ARHGAP8 /// PRR5-ARHGAP8 (11727945_x_at) / RFU KRTAP5-7 /// NADSYN1 (11734609_at) / Fold change /veh KRTAP5-7 /// NADSYN1 (11734609_at) / RFU RASL12 (11751679_a_at) / Fold change /veh RASL12 (11751679_a_at) / RFU CDKN2B (11736163_a_at) / Fold change /veh CDKN2B (11736163_a_at) / RFU PRF1 (11729649_at) / Fold change /veh PRF1 (11729649_at) / RFU, ZNF638 /// ZNF638-IT1 / Fold change vs veh, ZNF638 /// ZNF638-IT1 / RFU, PANK3 / Fold change vs veh, PANK3 / RFU, SH3YL1 / Fold change vs veh, SH3YL1 / RFU, ZEB2 / Fold change vs veh, ZEB2 / RFU, NRIP1 / Fold change vs veh, NRIP1 / RFU, PTTG1IP / Fold change vs veh, PTTG1IP / RFU, CAPN2 / Fold change vs veh, CAPN2 / RFU, MED14 / Fold change vs veh, MED14 / RFU, SNORA58 / Fold change vs veh, SNORA58 / RFU, C1orf63 / Fold change vs veh, C1orf63 / RFU, LRRFIP1 / Fold change vs veh, LRRFIP1 / RFU, NDUFAF7 / Fold change vs veh, NDUFAF7 / RFU, SLC12A2 / Fold change vs veh, SLC12A2 / RFU, IBTK / Fold change vs veh, IBTK / RFU, ESF1 / Fold change vs veh, ESF1 / Fold change vs veh, TMEM50B / RFU, TAOK1 / Fold change vs veh, TAOK1 / RFU, ACBD3 / Fold change vs veh, ACBD3 / RFU, TMA16 / Fold change vs veh, TMA16 / RFU, RWDD3 / Fold change vs veh, RWDD3 / RFU, BCAT1 / Fold change vs veh, BCAT1 / RFU, EDEM3 / Fold change vs veh, EDEM3 / RFU, TMEM33 / Fold change vs veh, TMEM33 / RFU, WDR75 / Fold change vs veh, WDR75 / RFU, AHCTF1 / Fold change vs veh, AHCTF1 / RFU, TFRC / Fold change vs veh, TFRC / RFU, ZDHHC17 / Fold change vs veh, ZDHHC17 / RFU, NOM1 / Fold change vs veh, NOM1 / RFU, ARL8B / Fold change vs veh, ARL8B / RFU, ZBTB11 / Fold change vs veh, ZBTB11 / RFU, TAMM41 / Fold change vs veh, TAMM41 / RFU, KIAA1704 /// LOC100996395 / Fold change vs veh, KIAA1704 /// LOC100996395 / RFU, ING1 / Fold change vs veh, ING1 / RFU, TRMT61B / Fold change vs veh, TRMT61B / RFU, FUBP3 / Fold change vs veh, FUBP3 / RFU, TP53 / Fold change vs veh, TP53 / RFU, TNKS2 / Fold change vs veh, TNKS2 / RFU, ZFP14 / Fold change vs veh, ZFP14 / RFU, ACTR2 / Fold change vs veh, ACTR2 / RFU, PPP3R1 / Fold change vs veh, PPP3R1 / RFU, PIK3R1 / Fold change vs veh, PIK3R1 / RFU, HNRNPA1 / Fold change vs veh, HNRNPA1 / RFU, RNF170 / Fold change vs veh, RNF170 / RFU, ZNF28 / Fold change vs veh, ZNF28 / RFU, RNGTT / Fold change vs veh, RNGTT / RFU, OGT / Fold change vs veh, OGT / RFU, BRD1 / Fold change vs veh, BRD1 / RFU, MARS / Fold change vs veh, MARS / RFU, ZNF655 / Fold change vs veh, ZNF655 / RFU, FAHD1 / Fold change vs veh, FAHD1 / RFU, BDP1 / Fold change vs veh, BDP1 / RFU, LRRCC1 / Fold change vs veh, LRRCC1 / RFU, ARID1A / Fold change vs veh, ARID1A / RFU, ZNF146 / Fold change vs veh, ZNF146 / RFU, ZNF330 / Fold change vs veh, ZNF330 / RFU, GPN3 / Fold change vs veh, GPN3 / RFU, C9orf123 / Fold change vs veh, C9orf123 / RFU, N4BP2L2 / Fold change vs veh, N4BP2L2 / RFU, ARFIP1 / Fold change vs veh, ARFIP1 / RFU, FAM179B / Fold change vs veh, FAM179B / RFU, BCL10 / Fold change vs veh, BCL10 / RFU, UHRF1BP1L / Fold change vs veh, UHRF1BP1L / RFU, BET1 / Fold change vs veh, BET1 / RFU, CNOT2 / Fold change vs veh, CNOT2 / RFU, ZNF268 / Fold change vs veh, ZNF268 / Fold change vs veh, ZNF507 / RFU, DGCR2 / Fold change vs veh, DGCR2 / RFU, WDSUB1 / Fold change vs veh, WDSUB1 / Fold change vs veh, HSP90B1 /// MIR3652 / RFU, ADSS / Fold change vs veh, ADSS / RFU, GK / Fold change vs veh, GK / RFU, ZNF148 / Fold change vs veh, ZNF148 / RFU, TAF9 / Fold change vs veh, TAF9 / RFU, SLC1A5 / Fold change vs veh, SLC1A5 / RFU, SLMO2 / Fold change vs veh, SLMO2 / RFU, ABCC4 / Fold change vs veh, ABCC4 / RFU, LOC101060439 /// RAP1B / Fold change vs veh, LOC101060439 /// RAP1B / RFU, RFX7 / Fold change vs veh, RFX7 / RFU, GTPBP10 / Fold change vs veh, GTPBP10 / RFU, CNEP1R1 / Fold change vs veh, CNEP1R1 / RFU, BIVM-ERCC5 /// ERCC5 / Fold change vs veh, BIVM-ERCC5 /// ERCC5 / RFU, ILF3 / Fold change vs veh, ILF3 / RFU 11762660_at / Fold change /veh 11762660_at / RFU VCAN (11757783_s_at) / Fold change /veh VCAN (11757783_s_at) / RFU DDX43 (11728927_at) / Fold change /veh DDX43 (11728927_at) / RFU KRT8 (11758188_x_at) / Fold change /veh KRT8 (11758188_x_at) / RFU NKD1 (11759106_at) / Fold change /veh NKD1 (11759106_at) / RFU SRD5A1 (11742802_a_at) / Fold change /veh SRD5A1 (11742802_a_at) / RFU TPSAB1 /// TPSB2 (11721975_s_at) / Fold change /veh TPSAB1 /// TPSB2 (11721975_s_at) / RFU GSTM3 (11746129_a_at) / Fold change /veh GSTM3 (11746129_a_at) / RFU IL23R (11737362_x_at) / Fold change /veh IL23R (11737362_x_at) / RFU TMEM51 (11727254_a_at) / Fold change /veh TMEM51 (11727254_a_at) / RFU PIWIL2 (11732686_x_at) / Fold change /veh PIWIL2 (11732686_x_at) / RFU ORM1 (11744905_x_at) / Fold change /veh ORM1 (11744905_x_at) / RFU CCDC152 (11743942_at) / Fold change /veh CCDC152 (11743942_at) / RFU ECM1 (11717891_a_at) / Fold change /veh ECM1 (11717891_a_at) / RFU IL23R (11748794_a_at) / Fold change /veh IL23R (11748794_a_at) / RFU TNFAIP8L3 (11732012_x_at) / Fold change /veh TNFAIP8L3 (11732012_x_at) / RFU MBOAT4 (11741988_at) / Fold change /veh MBOAT4 (11741988_at) / RFU 11764193_at / Fold change /veh 11764193_at / RFU TMEM53 (11763286_at) / Fold change /veh TMEM53 (11763286_at) / RFU MAGEB2 (11727129_at) / Fold change /veh MAGEB2 (11727129_at) / RFU TMEM200A (11744735_a_at) / Fold change /veh TMEM200A (11744735_a_at) / RFU CCDC152 (11751479_a_at) / Fold change /veh CCDC152 (11751479_a_at) / RFU FAM211A (11726209_a_at) / Fold change /veh FAM211A (11726209_a_at) / RFU RGS16 (11746705_a_at) / Fold change /veh RGS16 (11746705_a_at) / RFU VCAN (11755009_s_at) / Fold change /veh VCAN (11755009_s_at) / RFU RHOB (11743442_s_at) / Fold change /veh RHOB (11743442_s_at) / RFU RGS16 (11720943_a_at) / Fold change /veh RGS16 (11720943_a_at) / RFU RGS16 (11720944_at) / Fold change /veh RGS16 (11720944_at) / RFU, VPS4B / Fold change vs veh, VPS4B / RFU, CREB1 / Fold change vs veh, CREB1 / RFU, DNAJC13 / Fold change vs veh, DNAJC13 / RFU, GNAQ / Fold change vs veh, GNAQ / RFU, CDK5R1 / Fold change vs veh, CDK5R1 / RFU, ZRANB3 / Fold change vs veh, ZRANB3 / RFU, CUL4A / Fold change vs veh, CUL4A / RFU, CCNY / Fold change vs veh, CCNY / RFU, UFL1 / Fold change vs veh, UFL1 / RFU, COG3 / Fold change vs veh, COG3 / RFU, DIAPH2 / Fold change vs veh, DIAPH2 / RFU, SKA2 / Fold change vs veh, SKA2 / RFU, AFF3 / Fold change vs veh, AFF3 / RFU, LMF1 / Fold change vs veh, LMF1 / RFU, IPO11 / Fold change vs veh, IPO11 / RFU, DFFB / Fold change vs veh, DFFB / RFU, FOXP1 / Fold change vs veh, FOXP1 / RFU, CARD8 / Fold change vs veh, CARD8 / RFU, STRN3 / Fold change vs veh, STRN3 / RFU, ADK / Fold change vs veh, ADK / RFU, RASSF2 / Fold change vs veh, RASSF2 / RFU, WIPF1 / Fold change vs veh, WIPF1 / RFU, LARP1B / Fold change vs veh, LARP1B / RFU, RASA1 / Fold change vs veh, RASA1 / RFU, RB1 / Fold change vs veh, RB1 / RFU, PPFIA1 / Fold change vs veh, PPFIA1 / RFU, MAT2A / Fold change vs veh, MAT2A / RFU, CCT5 / Fold change vs veh, CCT5 / RFU, WDR92 / Fold change vs veh, WDR92 / RFU, CUX1 / Fold change vs veh, CUX1 / RFU, TTC7A / Fold change vs veh, TTC7A / RFU, TMEM135 / Fold change vs veh, TMEM135 / RFU, DEPTOR / Fold change vs veh, DEPTOR / RFU, CPM / Fold change vs veh, CPM / RFU, DNAJB6 / Fold change vs veh, DNAJB6 / RFU, CACNA2D3 / Fold change vs veh, CACNA2D3 / RFU, DTX4 / Fold change vs veh, DTX4 / RFU, TFCP2 / Fold change vs veh, TFCP2 / RFU, GMCL1 /// GMCL1P1 / Fold change vs veh, GMCL1 /// GMCL1P1 / RFU, AEBP2 / Fold change vs veh, AEBP2 / RFU, SNHG1 /// SNORD22 /// SNORD25 /// SNORD26 /// SNORD27 /// SNORD28 /// SNORD29 /// SNORD31 / Fold change vs veh, SNHG1 /// SNORD22 /// SNORD25 /// SNORD26 /// SNORD27 /// SNORD28 /// SNORD29 /// SNORD31 / Fold change (Aza/veh), C12orf56 (ProbeSet 11735607_a_at) / Fold change (ACY-1035/veh), C12orf56 (ProbeSet 11735607_a_at) / Fold change (Aza/veh), FGFR1OP (ProbeSet 11751329_s_at) / Fold change (ACY-1035/veh), FGFR1OP (ProbeSet 11751329_s_at) / Fold change (Aza/veh), VPS36 (ProbeSet 11739960_a_at) / Fold change (ACY-1035/veh), VPS36 (ProbeSet 11739960_a_at) / RFU SYPL1 (11715823_x_at) / Fold change /veh SYPL1 (11715823_x_at) / RFU IGFBP7 (11715501_s_at) / Fold change /veh IGFBP7 (11715501_s_at) / RFU REEP3 (11722064_at) / Fold change /veh REEP3 (11722064_at) / RFU IGLL1 (11728026_x_at) / Fold change /veh IGLL1 (11728026_x_at): dose or concentration left out as unconfirmed
Details: ProbeSet 11715478_a_at; LIST B

Nc1ccc(-c2cccs2)cc1NC(=O)c1ccc2c(c1)cc(C1CC1)n2CCN1CCOCC1 [ACY-1035]
Fold change vs veh, TFRC: 0.87
